PMC7358525, “Characterization of PF-6142, a Novel, Non-Catecholamine Dopamine Receptor D1 Agonist, in Murine and Nonhuman Primate Models of Dopaminergic Activation” (Frontiers in Pharmacology, 2020)

Experiments:
[1] = Plasma exposure (PK), NHP; type: in vivo; conditions: 0.1 mg/kg SC, 0.5 h
Method: (§1) Across the set of experiments, PK was either collected from satellite animals or in separate, dedicated studies. In addition to plasma PK, exposures were obtained in brain tissue for rat and mouse, and plasma protein binding and brain tissue binding were measured. Using the measured exposures, partitioning, and binding parameters, and the […]

[2] = tested on: conditioned avoidance responding; experiment: Rat conditioned avoidance response (CAR); type: in vivo
Method: The CAR assay was performed under similar conditions previously described ([Marquis et al., 2011]) at WuXiAppTec Inc. (Delin Rd. #90, Waigaoquiao Free Trade Zone, Shanghai 200131, China). For this study, adult male Fisher-344 rats were trained and tested in a two-way active avoidance apparatus with MED-PC software (MED Associates, St. Albans, VT, USA).
Briefly, subjects were handled and acclimated to the shuttle boxes for 2 d prior to training sessions. During training sessions, subjects were trained to avoid an electric footshock by moving to the adjacent, non-stimulus side of the shuttle box upon presentation of tone + light stimuli which preceded the presentation of the footshock (0.6 mA, 10 s duration) by 10 s. For this assay an avoidance was defined as moving to the adjacent compartment during the tone+light presentation that preceded the shock, an escape was defined as moving to the adjacent compartment upon presentation of the shock, and an escape failure was defined as a lack of relocation to the adjacent compartment throughout the presentation of the shock. Subjects received 30 trials of training per day for 5 d. Subjects with ≥ 80% avoidance responses on two consecutive days with no escape failures, were considered qualified for testing, and were randomized across treatment groups (n=8–9 per treatment group). […] Avoidance responding was calculated as % of the number of total trials in which an avoidance occurred. Data were calculated for each animal and compared across treatment groups using one-way ANOVA with Dunnett’s post-test versus the vehicle + vehicle treated group.

human D5 receptor = conditions: stated in discussion, no data or reference printed; cited from earlier work
[3] = tested on: prepulse inhibition of startle; experiment: Mouse prepulse inhibition (PPI) and acoustic startle; type: in vivo
Method: Drug and behaviorally naïve adult male C57BL/6J mice (9–11 weeks of age; n=8 per dose group) were used for PPI experiments. Subjects were tested individually in SR-Lab acoustic startle chambers (San Diego Instruments, San Diego CA, USA) equipped with a restrainer mounted atop a piezoelectric accelerometer which measured transduced movement in response to the presentation of audio stimuli presented through a speaker mounted 20 cm above the animal. Subjects were acclimated to an anteroom adjacent to the testing room at minimum 60 min prior to testing. Test sessions began with a 5 min acclimation period to background noise (65 dB) followed by presentation of six randomized repetitions of the 120 dB startle stimulus (40 ms duration) presented alone or paired in combination with a pre-pulse stimulus of 68, 72, or 74 db (20 msec in duration) presented 80 msec prior to the 120 dB startle stimulus, which was equivalent to +3, +7, and +9 db over background noise, respectively. Data were also recorded for no stimulus values to evaluate background level of response. The inter-trial interval between stimulus presentations was randomized and ranged from 10 to 20 s. Test compounds were administered 30 min (s.c.) prior to testing. […] Percent PPI was calculated for each individual subject as the relative change in the 120 dB startle response in the presence of each prepulse intensity using the formula: 100-((prepulse-pulse)/pulse)*100 as previously described ([Ralph-Williams et al., 2003]).
The experiment was analyzed using a two-way mixed model ANOVA (lme4 library in R software). The model included prepulse stimulus intensity levels, treatment (as all combinations of pre-treatment and treatment), and their interaction as fixed factors and random intercept, random slope for each animal as random factors. […] In order to adjust for multiple hypothesis testing we used false discover rate method which controls the expected proportion of false discoveries among the rejected hypotheses. For all statistical tests, p < 0.05 between groups was considered significant.

[4] = PK, brain exposure and plasma/brain tissue binding studies; type: in vivo; conditions: data not presented
Method: Across the set of experiments, PK was either collected from satellite animals or in separate, dedicated studies. In addition to plasma PK, exposures were obtained in brain tissue for rat and mouse, and plasma protein binding and brain tissue binding were measured. Using the measured exposures, partitioning, and binding parameters, and the
Exposures increased in a generally dose proportional manner across most of the doses used in the pharmacology studies, and inter animal variability was typically low. Exposures were obtained in brain tissues for rat and mouse, and plasma protein binding and brain tissue binding were measured.

[5] = Plasma exposure (PK), mouse; type: in vivo; conditions: 5.6 mg/kg SC, 1 h
Method: as §1

[6] = tested on: mPFC low frequency delta activity; experiment: mPFC low frequency delta field potential oscillation power, anesthetized rat; type: in vivo
Method: Experiments were performed on n=10 adult male Sprague-Dawley rats (275–305 g) under urethane anesthesia (1.5 g/kg, i.p.). The femoral vein was cannulated for i.v. administration of drugs. A stimulation electrode was placed in the CA1/subiculum region (coordinates: A-P = +6.3 mm, M–L = +5.2 mm, D-V = +8.0 mm) using stereotactic methods and unilateral local field potential (LFP) was recorded by a metal monopolar macroelectrode placed into the medial PFC (mPFC; coordinates: A-P = +3.0 mm, M-L = +0.6 mm, D-V = +5.0 mm). […] Evoked responses to the first and the second stimuli were identified (P1 and P2, respectively) and the amount of PPF determined by the formula: (P2 amplitude/P1 amplitude). Waveform averages used to calculate PPF consisted of 60 consecutive stimuli. Five minutes were allowed between administration of each drug dose and the starting of the subsequent average of each 10-min period after each cumulative dose (0.1–1 mg/kg, IV). Disruption in power of LFP delta activity was measured as the percentage of power in low frequency (0–1.8 Hz) irregular activity in the total (0–4 Hz) delta power range. LFP power spectra were determined during periods concurrent with waveform averages and PPF calculation. Statistical significance was determined by means of two-tailed paired Student’s t-test.

Cc1cc(Oc2nccc3occc23)ccc1-c1c(C)ncc2nccn12 [PF-6142]
PF-6142 plasma concentration [1]: 31 ng/mL | % avoidance responses ([2]; PF-6142 1.78 mg/kg s.c. + risperidone 0.1 mg/kg s.c.): 76.25% | % avoidance responses ([2]; PF-6142 1.78 mg/kg s.c. + risperidone 0.56 mg/kg s.c.): 8.125% | % avoidance responding ([2]; PF-6142 1.78 mg/kg s.c. alone, combination study (Figure 4D)): 94.38% | mean % avoidance responses ([2]; PF-6142 alone 0.32 mg/kg s.c.): 95.93% | mean % avoidance responses ([2]; PF-6142 alone 1.78 mg/kg s.c., dose-range study): 98.47% | mean % avoidance responses ([2]; PF-6142 alone 3.2 mg/kg s.c.): 95.57% | mean % avoidance responses ([2]; PF-6142 alone 5.6 mg/kg s.c.): 95.75% | affinity (human D5 receptor): moderate affinity | effect on %PPI in combination with risperidone ([3]; PF-6142 1.78 mg/kg + risperidone, 3, 7, 9 dB prepulse): no effect | %PPI vs vehicle ([3]; PF-6142 1.78 mg/kg alone, significant only at 9 dB prepulse intensity (p=0.029)): modest impairments in %PPI | % PPI, PF-6142 alone (pilot experiments, Figure 4C) ([3]; adult C57BL/6J mice): modest non-significant reductions in % PPI | effect on risperidone (0.56 mg/kg)-reduced startle responses ([3]; in the presence of PF-6142): not altered | brain penetration ([4]; brain tissues of rat and mouse): fully brain penetrant | unbound concentrations between the brain and plasma compartments ([4]; rat and mouse): approaching unity | PF-6142 plasma concentration [5]: 332 ng/mL | MK-801-induced increases in low frequency delta ([6]; PF-6142 0.1-1 mg/kg IV cumulative): dose-dependently reversed | MK-801-induced increases in low frequency delta activity after SCH-23390 pretreatment ([6]; PF-6142 cumulative IV up to 3 mg/kg (p=0.11)): no effect
